The numbers were not newly measured in patent US9201077B2 (Colorado State University Research Foundation, priority 2009, dated 2015), which cites them from elsewhere.

The first data set concerns Anti-Progesterone (R4859) Antibody raised against 11α-hemisuccinate progesterone. Particulars: tested by UC Davis Endocrinology Laboratory.
In the case of `CC(=O)[C@H]1CC[C@H]2[C@@H]3CC[C@H]4CC(=O)CC[C@]4(C)[C@H]3CC[C@]12C` [5α-Pregnane-3,20-dione], the “% Cross Reaction” value is on record as 12.19%.

For `CC(=O)[C@H]1CC[C@H]2[C@@H]3CCC4=CC(=O)CC[C@]4(C)[C@H]3[C@H](O)C[C@]12C` [11α-OH-Progesterone], the “% Cross Reaction” value is 40.00%.

Consider `CC(=O)[C@@]1(O)CC[C@H]2[C@@H]3CCC4=CC(=O)CC[C@]4(C)[C@H]3CC[C@@]21C` [17α-OH-Progesterone], for which the “% Cross Reaction” value was 0.38%.

In the case of `C[C@H](O)[C@H]1CC[C@H]2[C@@H]3CCC4=CC(=O)CC[C@]4(C)[C@H]3CC[C@]12C` [20α-OH-Progesterone], the “% Cross Reaction” value is on record as 0.13%.

As to `C[C@@H](O)[C@H]1CC[C@H]2[C@@H]3CCC4=CC(=O)CC[C@]4(C)[C@H]3CC[C@]12C` [20β-OH-Progesterone], the “% Cross Reaction” value was 0.13%.

For `C[C@]12CCC(=O)C=C1CC[C@@H]1[C@@H]2[C@@H](O)C[C@@]2(C)[C@H]1CC[C@]2(O)C(=O)CO` [Cortisol], the “% Cross Reaction” value is below 0.04%.

For the molecule `C[C@]12CC[C@@H]3c4ccc(O)cc4CC[C@H]3[C@@H]1CC[C@@H]2O` [Estradiol 17β], the “% Cross Reaction” value is below 0.01%.

For the molecule `C[C@H](O)[C@H]1CC[C@H]2[C@@H]3CC[C@@H]4C[C@H](O)CC[C@]4(C)[C@H]3CC[C@]12C` [Pregnanediol], the “% Cross Reaction” value was below 0.01%.

As to `CC(=O)[C@H]1CC[C@H]2[C@@H]3CC=C4C[C@@H](O)CC[C@]4(C)[C@H]3CC[C@]12C` [Pregnenolone], the “% Cross Reaction” value is listed as 0.12%.

Turning to `CC(=O)[C@H]1CC[C@H]2[C@@H]3CCC4=CC(=O)CC[C@]4(C)[C@H]3CC[C@]12C` [Progesterone], the “% Cross Reaction” value is 100.00%.

Turning to `C[C@]12CC[C@H]3[C@@H](CCC4=CC(=O)CC[C@@]43C)[C@@H]1CC[C@@H]2O` [Testosterone], the “% Cross Reaction” value is below 0.01%.

Another data set concerns antibody used in progesterone assays. Particulars: conventional progesterone assay.
Regarding `C=CC[C@]1(O)CC[C@H]2[C@@H]3CCC4=CC(=O)CCC4=C3C=C[C@@]21C` [altrenogest], the “cross-reaction with the antibody used in progesterone assays” value is on record as “does not cross-react”.
